In US20230286956A1 (DUKSUNG WOMEN'S UNIVERSITY INDUSTRY-ACADEMIC COOPERATION …, priority 2020, published 2023):

System: wild-type red mold strain GZ3639
Experiment: Inhibition of spore germination / reactive oxygen species generation through NOX enzyme inhibition in red mold
Type: cell-based
Settings: 24 h, read-out: IC50 (µM), compound concentration at which the spore germination inhibition rate was 50%
Experimental: When NADPH oxidase (NOX), which is involved in the generation of reactive oxygen species in red mold, is inhibited, normal mycelial growth is inhibited, abnormal form of monocyclic conidia is formed, and germination is inhibited. The abnormal phenotype caused by the reduction of reactive oxygen species in red mold can be easily observed under an optical microscope. Through this, the ability to inhibit generation of reactive oxygen species through NOX inhibition was evaluated.
Specifically, for the evaluation of compound activity, 0.1 mM of the compound was added to a minimum medium (MM20) spore suspension diluted to ⅕. Spores ([…]) of wild-type red mold strain GZ3639 were inoculated into the medium and cultured at 25° C. for 24 h, followed by microscopic observation. Compounds having a germination inhibition rate and microcycle conidiation to be 50% or more of those in normal germination were selected, and their activities were evaluated at concentrations of 50 µM, 25 µM, and 10 µM. At this time, the activity of substances having a germination inhibition rate of 95% at 10 µM was further evaluated at concentrations of 5 µM, 1 µM, 0.5 µM, and 0.1 µM. Based on the result of this evaluation, the compound concentration (inhibitory concentration 50%, IC50) at which the spore germination inhibition rate was 50% was determined.

SMILES | IC50 [µM]
CN1C(=[Se])N(c2ccccc2)C(=O)/C1=C\c1ccc(N(C)C)cc1 [Compound 3, 5-(4-(dimethylamino)benzylidene)-1-methyl-3-phenyl-2-selenoxoimidazolidine-4-on] | 26
CN1C(=[Se])N(c2ccccc2)C(=O)/C1=C\c1ccc(N2CCCC2)cc1 [Compound 7, 1-methyl-3-phenyl-5-(4-pyrrolidine-1-yl)benzylidene-2-selenoxoimidazolidine-4-on] | 16
CN1C(=[Se])N(c2ccccc2)C(=O)/C1=C\c1cccc(O)c1 [Compound 8, 5-(3-hydroxybenzylidene)-1-methyl-3-phenyl-2-selenoxoimidazolidine-4-on] | 41
CN1C(=[Se])N(c2ccccc2)C(=O)/C1=C\c1cccnc1 [Compound 9, 1-methyl-3-phenyl-5-(pyridine-3-ylmethylene)-2-selenoxoimidazolidine-4-on] | 37
Cc1ccc(N2C(=O)/C(=C\c3cccc(O)c3O)N(C)C2=[Se])cc1 [Compound 11, 5-(2,3-dihydroxybenzylidene)-1-methyl-3-(4-tolyl)-2-selenoxoimidazolidine-4-on] | 46
Cc1ccc(N2C(=O)/C(=C\c3ccc(Br)cc3)N(C)C2=[Se])cc1 [Compound 16, 5-(4-bromobenzylidene)-1-methyl-2-selenoxo-3-(4-tolyl)imidazolidine-4-on] | 46
Cc1ccc(N2C(=O)/C(=C\c3ccc(N4CCCC4)cc3)N(C)C2=[Se])cc1 [Compound 17, 1-methyl-5-(4-pyrrolidine-1-yl)benzylidene-2-selenoxo-3-(4-tolyl)imidazolidine-4-on] | 11
Cc1ccc(N2C(=O)/C(=C\c3ccc(O)cc3)N(C)C2=[Se])cc1 [Compound 18, 5-(4-hydroxybenzylidene)-1-methyl-2-selenoxo-3-(4-tolyl)imidazolidine-4-on] | 13
Cc1ccc(N2C(=O)/C(=C\c3cccnc3)N(C)C2=[Se])cc1 [Compound 19, 1-methyl-5-(pyridine-3-ylmethylene)-2-selenoxo-3-(4-tolyl)imidazolidine-4-on] | 41
Cc1ccc(N2C(=O)/C(=C\c3ccc(NCCN4CCOCC4)cc3)N(C)C2=[Se])cc1 [Compound 23, 1-methyl-5-(4-((2-morpholinoethyl)amino)benzylidene)-2-selenoxo-3-(4-tolyl)imidazolidine-4-on] | 5.2
CCc1ccc(N2C(=O)/C(=C\c3ccc(O)cc3O)N(C)C2=[Se])cc1 [Compound 24, 5-(2,4-dihydroxybenzylidene)-3-(4-ethylphenyl)-1-methyl-2-selenoxoimidazolidine-4-on] | 14
CCc1ccc(N2C(=O)/C(=C\c3ccc(N4CCCCC4)cc3)N(C)C2=[Se])cc1 [Compound 28, 3-(4-ethylphenyl)-1-methyl-5-(4-(piperidine-1-yl)benzylidene)-2-selenoxoimidazolidine-4-on] | 11
CCc1ccc(N2C(=O)/C(=C\c3ccc(Br)cc3)N(C)C2=[Se])cc1 [Compound 29, 5-(4-bromobenzylidene)-3-(4-ethylphenyl)-1-methyl-2-selenoxoimidazolidine-4-on] | 11
CCc1ccc(N2C(=O)/C(=C\c3cccnc3)N(C)C2=[Se])cc1 [Compound 31, 3-(4-ethylphenyl)-1-methyl-5-(pyridine-3-ylmethylene)-2-selenoxoimidazolidine-4-on] | 30
CN1C(=[Se])N(c2ccc(Cl)cc2)C(=O)/C1=C\c1ccc(O)cc1O [Compound 35, 3-(4-chlorophenyl)-5-(2,4-dihydroxybenzylidene)-1-methyl-2-selenoxoimidazolidine-4-on] | 31
CN1C(=[Se])N(c2ccc(Cl)cc2)C(=O)/C1=C\c1cccc(O)c1O [Compound 36, 3-(4-chlorophenyl)-5-(2,3-dihydroxybenzylidene)-1-methyl-2-selenoxoimidazolidine-4-on] | 46
CN1C(=[Se])N(c2ccc(Cl)cc2)C(=O)/C1=C\c1ccc(O)c(O)c1 [Compound 37, 3-(4-chlorophenyl)-5-(3,4-dihydroxybenzylidene)-1-methyl-2-selenoxoimidazolidine-4-on] | 20
CN1C(=[Se])N(c2ccc(Cl)cc2)C(=O)/C1=C\c1cc(O)cc(O)c1 [Compound 38, 3-(4-chlorophenyl)-5-(3,5-dihydroxybenzylidene)-1-methyl-2-selenoxoimidazolidine-4-on] | 56
CN1C(=[Se])N(c2ccc(Cl)cc2)C(=O)/C1=C\c1cccnc1 [Compound 39, 3-(4-chlorophenyl)-1-methyl-5-(pyridine-3-ylmethylene)-2-selenoxoimidazolidine-4-on] | 27
CN1C(=[Se])N(c2cccc(Cl)c2)C(=O)/C1=C\c1cccc(O)c1O [Compound 40, 3-(3-chlorophenyl)-5-(2,3-dihydroxybenzylidene)-1-methyl-2-selenoxoimidazolidine-4-on] | 42

SMILES | IC50 [µM]
CN1C(=[Se])N(CCc2ccccc2)C(=O)/C1=C\c1ccc(O)cc1O [Compound 41, 5-(2,4-dihydroxybenzylidene)-1-methyl-3-phenethyl-2-selenoxoimidazolidine-4-on] | 9.8
CN1C(=[Se])N(CCc2ccccc2)C(=O)/C1=C\c1ccc(N(C)C)cc1 [Compound 43, 5-(4-(dimethylamino)benzylidene)-1-methyl-3-phenethyl-2-selenoxoimidazolidine-4-on] | 23
CN1C(=[Se])N(CCc2ccccc2)C(=O)/C1=C\c1ccc(N2CCOCC2)cc1 [Compound 52, 1-methyl-5-(4-morpholinobenzylidene)-3-phenethyl-2-selenoxoimidazolidine-4-on] | 3.5
CN1C(=[Se])N(C2CCCCC2)C(=O)/C1=C\c1ccc(O)cc1O [Compound 55, 3-cyclohexyl-5-(2,4-dihydroxybenzylidene)-1-methyl-2-selenoxoimidazolidine-4-on] | 1
CN1C(=[Se])N(C2CCCCC2)C(=O)/C1=C\c1cccc(O)c1O [Compound 56, 3-cyclohexyl-5-(2,3-dihydroxybenzylidene)-1-methyl-2-selenoxoimidazolidine-4-on] | 18
CN1C(=[Se])N(C2CCCCC2)C(=O)/C1=C\c1ccc(N(C)C)cc1 [Compound 57] | 46
CN1C(=[Se])N(C2CCCCC2)C(=O)/C1=C\c1cc(O)cc(O)c1 [Compound 58, 3-cyclohexyl-5-(3,5-dihydroxybenzylidene)-1-methyl-2-selenoxoimidazolidine-4-on] | 18
CCCCCCN1C(=O)/C(=C\c2cccc(O)c2O)N(C)C1=[Se] [Compound 60, 5-(2,3-dihydroxybenzylidene)-3-hexyl-1-methyl-2-selenoxoimidazolidine-4-on] | 6
CCCCCCN1C(=O)/C(=C\c2ccc(N(C)C)cc2)N(C)C1=[Se] [Compound 61, 5-(4-(dimethylamino)benzylidene)-3-hexyl-1-methyl-2-selenoxoimidazolidine-4-on] | 33
CCCCCCN1C(=O)/C(=C\c2cc(O)cc(O)c2)N(C)C1=[Se] [Compound 62, 5-(3,5-dihydroxybenzylidene)-3-hexyl-1-methyl-2-selenoxoimidazolidine-4-on] | 5
CCCCCCN1C(=O)/C(=C\c2ccc(N3CCOCC3)cc2)N(C)C1=[Se] [Compound 63, 3-hexyl-1-methyl-5-(4-morpholinobenzylidene)-2-selenoxoimidazolidine-4-on] | 0.5
CCCCCCN1C(=O)/C(=C\c2ccc(NCCOCCF)cc2)N(C)C1=[Se] [Compound 67, 5-(4-((2-(2-fluoroethoxy)ethyl)amino)benzylidene)-3-hexyl-1-methyl-2-selenoxoimidazolidine-4-on] | 0.45
CN1C(=[Se])N(C2CCCC2)C(=O)/C1=C\c1ccc(O)cc1O [Compound 68, 3-cyclopentyl-5-(2,4-dihydroxybenzylidene)-1-methyl-2-selenoxoimidazolidine-4-on] | 3
CN1C(=[Se])N(C2CCCC2)C(=O)/C1=C\c1cccc(O)c1O [Compound 69, 3-cyclopentyl-5-(2,3-dihydroxybenzylidene)-1-methyl-2-selenoxoimidazolidine-4-on] | 14
CN1C(=[Se])N(C2CCCC2)C(=O)/C1=C\c1ccc(N(C)C)cc1 [Compound 70, 3-cyclopentyl-5-(4-(dimethylamino)benzylidene)-1-methyl-2-selenoxoimidazolidine-4-on] | 26
CN1C(=[Se])N(C2CCCC2)C(=O)/C1=C\c1ccc(O)c(O)c1 [Compound 71, 3-cyclopentyl-5-(3,4-dihydroxybenzylidene)-1-methyl-2-selenoxoimidazolidine-4-on] | 26
CN1C(=[Se])N(c2ccc(F)cc2)C(=O)/C1=C\c1ccc(N(C)C)cc1 [Compound 75, 5-(4-(dimethylamino)benzylidene)-3-(4-fluorophenyl)-1-methyl-2-selenoxoimidazolidine-4-on] | 23
CN1C(=[Se])N(CCCN2CCOCC2)C(=O)/C1=C\c1ccc(Cl)cc1 [Compound 85, 5-(4-chlorobenzylidene)-1-methyl-3-(3-morpholinopropyl)-2-selenoxoimidazolidine-4-on] | 5
CN1C(=[Se])N(CCCCCCF)C(=O)/C1=C\c1cc(O)cc(O)c1 [Compound 88] | 18
CN1C(=[Se])N(CCCCCF)C(=O)/C1=C\c1ccc(O)cc1O [Compound 89, 5-(2,4-dihydroxybenzylidene)-3-(5-fluoropentyl)-1-methyl-2-selenoxoimidazolidine-4-on] | 13
